# Reference: patent US20240196899A1, “PESTICIDAL MIXTURES” (priority 2021, published 2024)
# Like-named read-outs stand apart in the source and are kept apart here.
# Key:
# M. persicae = assay: Insecticidal % control against M. persicae, Colby synergy; assay type: in vivo, Myzus persicae
# Procedure: (§1) Colby's method is used to determine if synergy exists for a combination of active ingredients. According to Colby, the expected action (E) of active ingredients A+B is:
# (§2) [formula] • where E=expected efficacy, A and B=the efficacy of two active ingredients A and B at a given dose.
# (§3) When the percentage of control observed (O) for the combination is greater than the expected (E) percentage, there is a synergistic effect. The synergism ratio (R) is calculated as the ratio between the […].
# (§4) The insecticidal compounds A (Novaluron) and B (mix partner) are formulated as equivalent suspension concentrates to eliminate the effects of differing formulation inerts on biological activity. Efficacy of the insecticidal compositions is evaluated with reference to a scale of 0% to 100% in comparison with untreated control plots. 0 means no damage and 100 means complete destruction of the harmful pests.
# (§5) Likewise following experimentations were done on other mixtures of novaluron on various pests, the result of which are summarized in the below tables: […]
# B. tabaci = assay: Insecticidal % control against B. tabaci, Colby synergy; assay type: in vivo, Bemisia tabaci; details: Table 7, 72 hours after treatment
# Procedure: as §1, §2, §3, §4, §5
# S. frugiperda = assay: Insecticidal % control against S. frugiperda, Colby synergy; assay type: in vivo, Spodoptera frugiperda; details: 120 hours after treatment
# Procedure: as §1, §2, §3, §4, §5
# T. urticae = assay: Insecticidal % control against T. urticae, Colby synergy; assay type: in vivo, Tetranychus urticae
# Procedure: as §1, §2, §3, §4, §5
# [1] = tested on: Cotton Leafworm, S. littoralis; assay: Insecticidal % control against Cotton Leafworm, S. littoralis, Colby synergy; assay type: in vivo, Spodoptera littoralis; details: 72 hours after treatment
# Procedure: as §1, §2, §3, §4, §5
# H. halys = assay: Insecticidal % control against H. halys, Colby synergy; assay type: in vivo, Halyomorpha halys; details: Table 20 B; 144 hours after treatment; 5 ppm
# Procedure: as §1, §2, §3, §4, §5
# F. occidentalis = assay: Insecticidal % control against F. occidentalis, Colby synergy; assay type: in vivo, Frankliniella occidentalis
# Procedure: as §1, §2, §3, §4, §5
# A. gossypii = assay: Insecticidal % control against A. gossypii, Colby synergy; assay type: in vivo, Aphis gossypii; details: 96 hours after treatment
# Procedure: as §1, §2, §3, §4, §5
# T. absoluta = assay: Insecticidal % control against T. absoluta, Colby synergy; assay type: in vivo, Tuta absoluta; details: 72 hours after treatment
# Procedure: as §1, §2, §3, §4, §5
# [2] = tested on: Spodoptera littoralis larvae; assay: Larval weight gain (LWG) of S. littoralis on treated castor bean leaves; assay type: in vivo; details: Table 3
# Procedure: (§6) The experiments were conducted by applying commercially available compositions of Novaluron (Rimon®) and methoxyfenozide (Runner®) alone or together. The compositions were diluted with water to the stated concentration of the active compound.
# (§7) The following active ingredients and their mixtures were evaluated: • Novaluron: 0.01 mg a.i./liter • Methoxyfenozide: 0.01 mg a.i./liter • Novaluron+Methoxyfenozide 0.01 mg a.i./liter+0.01 mg a.i./liter
# (§8) To evaluate the insecticidal control of novaluron and methoxyfenozide alone and in a binary mixture, castor bean leaves were treated with the above listed treatments. The treated leaves were exposed for 4-day feeding to 3rd-instar Spodoptera littoralis and the larvae were exposed for additional 4 days on untreated leaves. Larval mortality was determined at day 4 and 8. The treatments were composed of 3-5 replicates of 10 larvae each.
# Larval weight gain (LWG) was also measured in order to determine the effectiveness of the mixture of novaluron and methoxyfenozide when compared to the solo application of novaluron and methoxyfenozide.
# Table 3 below summarizes the larval weight gain (LWG) (compared to the control), that was determined 4 days after treatment for the mixture of novaluron and methoxyfenozide.
# [3] = tested on: Spodoptera littoralis larvae; assay: Larval mortality of S. littoralis fed on treated castor bean leaves (tank mix novaluron + methoxyfenozide), Colby synergy; assay type: in vivo; details: Spodoptera littoralis, in Ricinus communis, Table 1, 0.01 mg a.i./L of each active
# Procedure: as §1, §2, §3
# A representative experiment was conducted to evaluate the insecticidal control of novaluron, a compound II, namely methoxyfenozide as well as a mixture of novaluron and methoxyfenozide against Spodoptera littoralis larvae.
# as §6, §7, §8
molecule,measurement,setting,value
COP(=O)(NC(C)=O)SC (centres unmarked) [Acephate],Observed % control (O),"M. persicae; Table 17 A, 72 hours after treatment, 2 ppm",66%
same,Observed % control (O),"M. persicae; Table 17 B, 7 days after treatment, 2 ppm",75.0%
C[C@]1(COC(=O)C2CC2)[C@@H]2C[C@H](O)[C@@]3(C)Oc4cc(-c5cccnc5)oc(=O)c4[C@H](O)[C@@H]3[C@@]2(C)CC[C@@H]1OC(=O)C1CC1 [Afidopyropen],Observed % control (O),B. tabaci; 7 ppm,35.1%
same,Observed % control (O),B. tabaci; 35 ppm,49.8%
CN(C(=O)c1ccccc1)c1cccc(C(=O)Nc2c(Br)cc(C(F)(C(F)(F)F)C(F)(F)F)cc2C(F)(F)F)c1F [Broflanilide],Observed % control (O),"S. frugiperda; Table 9, 0.001 ppm",10%
same,Observed % control (O),"S. frugiperda; Table 9, 0.01 ppm",20%
CCOCn1c(-c2ccc(Cl)cc2)c(C#N)c(Br)c1C(F)(F)F [Chlorfenapyr],Observed % control (O),"T. urticae; Table 14 A, 48 hours after treatment, 2.4 ppm",64%
same,Observed % control (O),"T. urticae; Table 14 A, 48 hours after treatment, 24 ppm",79%
same,Observed % control (O),"T. urticae; Table 14 B, 72 hours after treatment, 2.4 ppm",78%
same,Observed % control (O),"T. urticae; Table 14 B, 72 hours after treatment, 24 ppm",86%
same,Observed % control (O),"T. urticae; Table 14 C, 7 days after treatment, 2.4 ppm",86%
same,Observed % control (O),"T. urticae; Table 14 C, 7 days after treatment, 24 ppm",94%
CN/C(=N/CC1CCOC1)N[N+](=O)[O-] (centres unmarked) [Dinotefuran],Observed % control (O),"[1]; Table 16, 0.04 ppm",25%
N#Cc1nn(-c2c(Cl)cc(C(F)(F)F)cc2Cl)c(N)c1[S+]([O-])C(F)(F)F (centres unmarked) [Fipronil],Observed % control (O),H. halys,87.5%
same,Observed % control (O),"F. occidentalis; Table 20 C, 48 hours after treatment, 1 ppm",66.0%
same,Observed % control (O),"F. occidentalis; Table 20 D, 72 hours after treatment, 1 ppm",70.0%
same,Observed % control (O),"F. occidentalis; Table 20 D, 72 hours after treatment, 100 ppm",90.0%
same,Observed % control (O),"F. occidentalis; Table 20 E, 7 days after treatment, 1 ppm",84.0%
same,Observed % control (O),"[1]; Table 20 A, 0.002 ppm",0%
same,Observed % control (O),"[1]; Table 20 A, 0.02 ppm",5%
O=C(N=c1ccccn1Cc1ccc(Cl)nc1)C(F)(F)F [Flupyrimin],Observed % control (O),"[1]; Table 12, 12 ppm",0%
CCN1OCC(NC(=O)c2ccc(C3=NOC(c4cc(Cl)c(F)c(Cl)c4)(C(F)(F)F)C3)cc2C)C1=O (centres unmarked) [Isocycloseram],Observed % control (O),"[1]; Table 8, 12 ppm",12.5%
CCOC(=O)CC(SP(=S)(OC)OC)C(=O)OCC (centres unmarked) [Malathion],Observed % control (O),"A. gossypii; Table 18 A, 100 ppm",81.7%
same,Observed % control (O),"F. occidentalis; Table 18 B, 72 hours after treatment, 5 ppm",6.0%
same,Observed % control (O),"F. occidentalis; Table 18 B, 72 hours after treatment, 500 ppm",80.0%
COc1cccc(C(=O)NN(C(=O)c2cc(C)cc(C)c2)C(C)(C)C)c1C [Methoxyfenozide],Observed % control (O),"T. absoluta; Table 2, 3 ppm",16.7%
same,LWG % rel. Control,"[2]; 4 days after treatment, 0.01 mg a.i./L of each active",93 % rel. Control
same,effect on the weight gain of the Spodoptera littoralis larvae,[2]; applied alone,neither novaluron nor methoxyfenozide alone have any effect on the weight gain
same,mortality at 0.01 µg/mL,"[3]; 96 h, 3rd-instar larvae, 4-day feeding on treated leaves, day 4, read-out: Larval mortality, % (observed) 4 d",4.1%
same,mortality at 0.01 µg/mL,"[3]; 4 days on treated then 4 days on untreated leaves, day 8, read-out: Larval mortality, % (observed) 8 d",12%
CN(C(=O)c1cc(-c2cnn(-c3c(Cl)cc(C(F)(C(F)(F)F)C(F)(F)F)cc3Cl)c2)cnc1Cl)C1CC1 [Nicofluprole],Observed % control (O),"[1]; Table 21, 12 ppm",0%
Cc1cc(C)c(C2=C(OC(=O)CC(C)(C)C)C3(CCCC3)OC2=O)c(C)c1 [Spiromesifen],Observed % control (O),"M. persicae; Table 19 B, 7 days after treatment, 5 ppm",58.3%
same,Observed % control (O),"A. gossypii; Table 19 A, 500 ppm",75.3%
CCOC(=O)OC1=C(c2cc(C)ccc2C)C(=O)N[C@]12CC[C@@H](OC)CC2 [Spirotetramat],Observed % control (O),"M. persicae; Table 6 A, 72 hours after treatment, 100 ppm",68%
same,Observed % control (O),"M. persicae; Table 6 B, 7 days after treatment, 100 ppm",85.7%
same,Observed % control (O),"T. urticae; Table 6 C, 48 hours after treatment, 600 ppm",8.0%
same,Observed % control (O),"T. urticae; Table 6 D, 72 hours after treatment, 6 ppm",6.0%
same,Observed % control (O),"T. urticae; Table 6 D, 72 hours after treatment, 600 ppm",14.0%
same,Observed % control (O),"T. urticae; Table 6 E, 7 days after treatment, 600 ppm",16.2%
CC(c1ccc(C(F)(F)F)nc1)S(C)(=O)=NC#N (centres unmarked) [Sulfoxaflor],Observed % control (O),"M. persicae; Table 15 A, 48 hours after treatment, 0.5 ppm",64%
same,Observed % control (O),"M. persicae; Table 15 B, 72 hours after treatment, 0.5 ppm",70%
same,Observed % control (O),"M. persicae; Table 15 B, 72 hours after treatment, 2.5 ppm",82%
CNC(=O)c1cc(C#N)cc(C)c1NC(=O)c1cc(Cn2nnc(C(F)(F)F)n2)nn1-c1ncccc1Cl [Tetraniliprole],Observed % control (O),"S. frugiperda; Table 10 A, 0.001 ppm",0%
same,Observed % control (O),"S. frugiperda; Table 10 A, 0.01 ppm",0%
same,Observed % control (O),"[1]; Table 10 B, 0.004 ppm",7.5%
same,Observed % control (O),"[1]; Table 10 B, 0.02 ppm",17.5%
same,Observed % control (O),"[1]; Table 10 B, 0.1 ppm",95%
CCN(C(=O)CCSCCC(F)(F)F)c1cn(-c2cccnc2)nc1Cl [Tyclopyrazoflor],Observed % control (O),"[1]; Table 13, 12 ppm",12.5%
Dicloromezotiaz,Observed % control (O),"[1]; Table 11, 12 ppm",0%
Spinetoram,Observed % control (O),"S. frugiperda; Table 5 A, 0.01 ppm",20%
same,Observed % control (O),"S. frugiperda; Table 5 A, 0.025 ppm",30%
same,Observed % control (O),"S. frugiperda; Table 5 A, 0.05 ppm",45%
same,Observed % control (O),"T. absoluta; Table 5 C, 1 ppm",50%
same,Observed % control (O),"T. absoluta; Table 5 C, 3 ppm",33.3%
same,Observed % control (O),"T. absoluta; Table 5 C, 10 ppm",83.3%
same,Observed % control (O),"F. occidentalis; Table 5 D, 48 hours after treatment, 3.5 ppm",18.0%
same,Observed % control (O),"F. occidentalis; Table 5 D, 48 hours after treatment, 350 ppm",78.0%
same,Observed % control (O),"F. occidentalis; Table 5 E, 72 hours after treatment, 3.5 ppm",22.0%
same,Observed % control (O),"F. occidentalis; Table 5 E, 72 hours after treatment, 350 ppm",82.0%
same,Observed % control (O),"F. occidentalis; Table 5 F, 7 days after treatment, 3.5 ppm",30.0%
same,Observed % control (O),"F. occidentalis; Table 5 F, 7 days after treatment, 350 ppm",82.0%
same,Observed % control (O),"[1]; Table 5 B, 0.004 ppm",0%
same,Observed % control (O),"[1]; Table 5 B, 0.1 ppm",80%
Spinosad,Observed % control (O),"F. occidentalis; Table 4 A, 48 hours after treatment, 5.3 ppm",2.0%
same,Observed % control (O),"F. occidentalis; Table 4 B, 72 hours after treatment, 5.3 ppm",4.0%
same,Observed % control (O),"F. occidentalis; Table 4 B, 72 hours after treatment, 530 ppm",32.0%
same,Observed % control (O),"F. occidentalis; Table 4 C, 7 days after treatment, 5.3 ppm",32.0%
same,Observed % control (O),"F. occidentalis; Table 4 C, 7 days after treatment, 530 ppm",60.0%
